Reference: ChEMBL document CHEMBL1212926, “Design of potent inhibitors of human RAD51 recombinase based on BRC motifs of BRCA2 protein: modeling and experimental validation of a chimera peptide” (J Med Chem, 2010)
Activity calls are given as the source filed them. The rule behind the calls is not given here. Where a SMILES comes first, the peptide text is derived from it.

Tests used:
[1] = biological target: T1, DNA repair protein RAD51 homolog 1 (Homo sapiens, UniProt Q06609); assay: Inhibition of human RAD51 assessed as concentration required for half dissociation of protein/single-stranded DNA complex formation by fluorescence polarimetry
T1 sequence (Q06609 whole entry): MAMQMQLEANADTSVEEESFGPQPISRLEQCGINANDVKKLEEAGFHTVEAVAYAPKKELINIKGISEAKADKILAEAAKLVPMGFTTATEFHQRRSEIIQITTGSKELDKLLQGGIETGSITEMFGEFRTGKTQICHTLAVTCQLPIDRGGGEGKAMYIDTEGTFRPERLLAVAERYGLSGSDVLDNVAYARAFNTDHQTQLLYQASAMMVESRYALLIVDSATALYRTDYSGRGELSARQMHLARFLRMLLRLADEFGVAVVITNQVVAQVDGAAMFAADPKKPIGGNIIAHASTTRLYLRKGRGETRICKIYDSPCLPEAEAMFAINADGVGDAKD

[2] = biological target: T2, DNA repair protein RAD51 homolog 1 (Homo sapiens) (UniProt Q06609); assay: Binding affinity to human RAD51 by isothermal titration calorimetry
T2 sequence (whole entry): T1 sequence (Q06609 whole entry)

[3] = biological target: T1, DNA repair protein RAD51 homolog 1; assay: Inhibition of human RAD51 assessed as dissociation of protein/single-stranded poly-(d-epsilonA) complex formation by fluorescence polarimetry
[4] = biological target: T1, DNA repair protein RAD51 homolog 1; assay: Inhibition of human RAD51 assessed as dissociation of protein/single-stranded oligo(AGT)12 complex formation by fluorescence polarimetry
[5] = biological target: T2, DNA repair protein RAD51 homolog 1 (Homo sapiens); assay: Inhibition of human RAD51-mediated 58-mer single-stranded DNA strand exchange activity at 5 to 15 uM after 1 hr by PAGE
[6] = biological target: T2, DNA repair protein RAD51 homolog 1 (Homo sapiens); assay: Binding affinity to human RAD51 at 40 uM by circular dichroism assay

Row | SMILES | Ki [1] | K [2] | IC50 [3] | IC50 [4] | inhibition [5] | Activity [6]
1 | CC[C@H](C)[C@H](NC(=O)[C@H](CCCCN)NC(=O)[C@@H](NC(=O)[C@H](CCCCN)NC(=O)[C@H](CCCCN)NC(=O)CNC(=O)[C@H](CO)NC(=O)[C@H](C)NC(=O)[C@@H](NC(=O)[C@H](Cc1cnc[nH]1)NC(=O)[C@H](Cc1ccccc1)NC(=O)CN)[C@@H](C)O)C(C)C)C(=O)N[C@@H](C)C(=O)N[C@@H](CCCCN)C(=O)N[C@@H](CCC(=O)O)C(=O)N[C@@H](CO)C(=O)N[C@@H](CC(C)C)C(=O)N[C@@H](CC(=O)O)C(=O)N[C@@H](CCCCN)C(=O)N[C@H](C(=O)N[C@@H](CCCCN)C(=O)N[C@@H](CC(N)=O)C(=O)N[C@@H](Cc1ccccc1)C(=O)N[C@@H](Cc1ccccc1)C(=O)O)C(C)C | 4200 nM | 7.3 ×10⁵ /M | 5000 nM | 2600 nM | Active | Active
2 | CC[C@H](C)[C@H](NC(=O)[C@H](CCCCN)NC(=O)[C@@H](NC(=O)[C@H](CCCCN)NC(=O)[C@H](CCCCN)NC(=O)CNC(=O)[C@H](CO)NC(=O)[C@H](C)NC(=O)[C@@H](NC(=O)[C@H](Cc1ccc(O)cc1)NC(=O)[C@H](Cc1ccccc1)NC(=O)CN)[C@@H](C)O)C(C)C)C(=O)N[C@@H](C)C(=O)N[C@@H](CCCCN)C(=O)N[C@@H](CCC(=O)O)C(=O)N[C@@H](CO)C(=O)N[C@@H](CC(C)C)C(=O)N[C@@H](CC(=O)O)C(=O)N[C@@H](CCCCN)C(=O)N[C@H](C(=O)N[C@@H](CCCCN)C(=O)N[C@@H](CC(N)=O)C(=O)N[C@@H](CC(C)C)C(=O)N[C@@H](Cc1ccccc1)C(=O)O)C(C)C | 6000 nM | 3.8 ×10⁵ /M | 7000 nM | 2700 nM | Active | Active
3 | CC[C@H](C)[C@H](NC(=O)[C@H](CCCCN)NC(=O)[C@@H](NC(=O)[C@H](CCCCN)NC(=O)[C@H](CCCCN)NC(=O)CNC(=O)[C@H](CO)NC(=O)[C@H](C)NC(=O)[C@@H](NC(=O)[C@H](Cc1ccc(O)cc1)NC(=O)[C@H](Cc1ccccc1)NC(=O)CN)[C@@H](C)O)C(C)C)C(=O)N[C@@H](CO)C(=O)N[C@@H](CCCCN)C(=O)N[C@@H](CCC(=O)O)C(=O)N[C@@H](CO)C(=O)N[C@@H](CC(C)C)C(=O)N[C@@H](CC(=O)O)C(=O)N[C@@H](CCCCN)C(=O)N[C@H](C(=O)N[C@@H](CCCCN)C(=O)N[C@@H](CC(N)=O)C(=O)N[C@@H](Cc1ccccc1)C(=O)N[C@@H](Cc1ccccc1)C(=O)O)C(C)C (H-GFYTASGKKVKISKESLDKVKNFF-OH) | 750 nM |  | 1500 nM | 1050 nM | Active | 

More lines, now with the values ahead:

Row | Ki [1] | K [2] | IC50 [3] | IC50 [4] | inhibition [5] | Activity [6] | SMILES
4 | 1800 nM | 5.2 ×10⁵ /M | 2500 nM | 2000 nM | Active | Active | CC[C@H](C)[C@H](NC(=O)[C@H](CCCCN)NC(=O)[C@@H](NC(=O)[C@H](CCCCN)NC(=O)[C@H](CCCCN)NC(=O)CNC(=O)[C@H](CO)NC(=O)[C@H](C)NC(=O)[C@@H](NC(=O)[C@H](Cc1cnc[nH]1)NC(=O)[C@H](Cc1ccccc1)NC(=O)CN)[C@@H](C)O)C(C)C)C(=O)N[C@@H](CO)C(=O)N[C@@H](CCCCN)C(=O)N[C@@H](CCC(=O)O)C(=O)N[C@@H](CO)C(=O)N[C@@H](CC(C)C)C(=O)N[C@@H](CC(=O)O)C(=O)N[C@@H](CCCCN)C(=O)N[C@H](C(=O)N[C@@H](CCCCN)C(=O)N[C@@H](CC(N)=O)C(=O)N[C@@H](CC(C)C)C(=O)N[C@@H](Cc1ccccc1)C(=O)O)C(C)C
5 |  | < 0.1 ×10⁵ /M |  |  | Active | Active | CC[C@H](C)[C@H](NC(=O)[C@H](CCCCN)NC(=O)[C@@H](NC(=O)[C@H](CCCCN)NC(=O)[C@H](CCCCN)NC(=O)CNC(=O)[C@H](CO)NC(=O)[C@H](CO)NC(=O)[C@@H](NC(=O)[C@H](Cc1cnc[nH]1)NC(=O)[C@H](Cc1ccccc1)NC(=O)CN)[C@@H](C)O)C(C)C)C(=O)N[C@@H](C)C(=O)N[C@@H](CCCCN)C(=O)N[C@@H](CCC(=O)O)C(=O)N[C@@H](CO)C(=O)N[C@@H](CC(C)C)C(=O)N[C@@H](CC(=O)O)C(=O)N[C@@H](CCCCN)C(=O)N[C@H](C(=O)N[C@@H](CCCCN)C(=O)N[C@@H](CC(N)=O)C(=O)N[C@@H](CC(C)C)C(=O)N[C@@H](Cc1ccccc1)C(=O)O)C(C)C
6 |  |  |  |  |  | Active | CC[C@H](C)[C@H](NC(=O)[C@H](CCCCN)NC(=O)[C@@H](NC(=O)[C@H](CCCCN)NC(=O)[C@H](CCCCN)NC(=O)CNC(=O)[C@H](CO)NC(=O)[C@H](C)NC(=O)[C@@H](NC(=O)[C@@H](N)Cc1cnc[nH]1)[C@@H](C)O)C(C)C)C(=O)N[C@@H](C)C(=O)N[C@@H](CCCCN)C(=O)N[C@@H](CCC(=O)O)C(=O)N[C@@H](CO)C(=O)N[C@@H](CC(C)C)C(=O)N[C@@H](CC(=O)O)C(=O)N[C@@H](CCCCN)C(=O)N[C@H](C(=O)N[C@@H](CCCCN)C(=O)N[C@@H](CC(N)=O)C(=O)N[C@@H](CC(C)C)C(=O)N[C@@H](Cc1ccccc1)C(=O)N[C@@H](CC(=O)O)C(=O)N[C@@H](CCC(=O)O)C(=O)O)C(C)C (H-HTASGKKVKIAKESLDKVKNLFDE-OH)
